# Values of other authors, collected in patent publication US20030073115A1 (priority 2002, published 2003).
# Key:
# CNS galanin receptors = conditions: CNS / brain
# [1] = system: gastrointestinal smooth muscle
# [2] = system: Galanin receptors in the dorsal hippocampus
Compound,activity at CNS galanin receptors (CNS galanin receptors),activity in gastrointestinal smooth muscle [1],affinity [2]
CSCC[C@H](NC(=O)[C@H](CC(C)C)NC(=O)CNC(=O)[C@H](Cc1ccccc1)NC(=O)[C@H](Cc1ccccc1)NC(=O)[C@H](CCC(N)=O)NC(=O)[C@H](CCC(N)=O)NC(=O)[C@@H]1CCCN1C(=O)CNC(=O)[C@H](CC(C)C)NC(=O)[C@H](CC(C)C)NC(=O)[C@H](Cc1ccc(O)cc1)NC(=O)CNC(=O)[C@H](C)NC(=O)[C@H](CO)NC(=O)[C@H](CC(N)=O)NC(=O)[C@H](CC(C)C)NC(=O)[C@@H](NC(=O)[C@H](Cc1c[nH]c2ccccc12)NC(=O)CN)[C@@H](C)O)C(N)=O [M15],antagonist,full agonist,–
Gal (1-15): galanin fragment 1-15,–,–,high affinity
